Experimental data taken from patent US12071414B2, “Apelin receptor agonists and methods of use thereof” (Sanford Burnham Prebys Medical Discovery Institute, priority 2015, dated 2024).

Key:
[1] = molecular target: T1, human apelin receptor (APJ, AGTRL-one, APLNR) (Homo sapiens, UniProt P35414); assay: cell-based cAMP TR-FRET assay of apelin receptor activation; settings: CHO cells expressing human APJ, forskolin-stimulated cAMP, 0.5 h incubation, 50% of control (apelin-13, 1 nM) response; read-out: Potency Category (EC50)
T1 construct: host or cells: Chinese hamster ovary cells, stably integrated receptor
T1 sequence (P35414 1-380): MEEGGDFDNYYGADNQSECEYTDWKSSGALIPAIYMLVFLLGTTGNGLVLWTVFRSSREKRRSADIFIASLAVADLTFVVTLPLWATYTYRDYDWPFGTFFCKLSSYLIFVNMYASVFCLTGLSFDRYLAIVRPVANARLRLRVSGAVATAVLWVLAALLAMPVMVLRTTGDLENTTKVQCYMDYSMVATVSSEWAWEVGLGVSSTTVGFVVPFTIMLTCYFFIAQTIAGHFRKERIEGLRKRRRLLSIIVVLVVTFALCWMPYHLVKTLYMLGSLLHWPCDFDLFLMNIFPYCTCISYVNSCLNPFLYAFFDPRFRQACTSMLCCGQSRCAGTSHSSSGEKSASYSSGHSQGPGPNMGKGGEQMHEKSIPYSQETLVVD
How it was run: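 CHO cells stably expressing human APJ were stimulated to raise cAMP, then incubated 0.5 h with compound (0.0-100 μM, ≤1% DMSO). Lysed cAMP measured by competitive TR-FRET immunoassay; efficacy as % of 1 nM apelin-13 response, potency from four-point logistic fit over ≥10 concentrations.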

isolated rat heart = settings: read-out: EC50 of positive inotropic effect, in rats, infusion; cited from earlier work
heart = settings: read-out: EC50 of positive inotropic effect; in humans; cited from earlier work

Compound	EC50 [1]	other results
CCS(=O)(=O)c1ccc(C(Cc2ccccc2)C(=O)Nc2nc3cc(OC)c(OC)cc3s2)cc1 (stereo not drawn)	> 500 nM	–
CCS(=O)(=O)c1ccccc1C(Oc1ccc(C#N)cc1)C(=O)Nc1nc2cc(OC)c(OC)cc2s1 (stereo not drawn)	< 50 nM	–
COc1cc2nc(NC(=O)Cc3ccc(C(=O)N(C)C)cc3)sc2cc1OC	> 500 nM	–
COc1cc2nc(NC(=O)Cc3ccccc3C(=O)N(C)C)sc2cc1OC	> 500 nM	–
CCN(CC)c1ccc2sc(NC(=O)C(Oc3ccc(C#N)cc3)c3ccc(S(=O)(=O)CC)cc3)nc2c1 (stereo not drawn)	> 500 nM	–
CCOc1c(OC)ccc2nc(NC(=O)C(Oc3ccc(C#N)cc3)c3ccc(S(=O)(=O)CC)cc3)sc12 (stereo not drawn)	< 50 nM	–
CCS(=O)(=O)c1ccc(C(Nc2ccc(C#N)cc2)C(=O)Nc2nc3cc(OC)c(OC)cc3s2)cc1 (stereo not drawn)	< 50 nM	–
CCS(=O)(=O)c1ccc(C(Oc2ccc(C#N)cc2)C(=O)Nc2nc3ccc4c(c3s2)OCCO4)cc1 (stereo not drawn)	50 to 100 nM	–
CCS(=O)(=O)c1ccc(C(Oc2cccc(OC)c2)C(=O)Nc2nc3cc(OC)c(OC)cc3s2)cc1 (stereo not drawn)	> 500 nM	–
CCS(=O)(=O)c1ccc(C(Oc2ccc(F)cc2)C(=O)Nc2nc3cc(OC)c(OC)cc3s2)cc1 (stereo not drawn)	> 500 nM	–
CCS(=O)(=O)c1ccc(C(Oc2ccc(C#N)cc2)C(=O)Nc2nc3cc(OC)c(OC)cc3n2C)cc1 (stereo not drawn)	> 500 nM	–
CCS(=O)(=O)c1ccc(C(Oc2ccc(N(C)C)cc2)C(=O)Nc2nc3cc(OC)c(OC)cc3s2)cc1 (stereo not drawn)	200 to 500 nM	–
apelin-16	–	EC50 (isolated rat heart): ~0.033 nM; EC50 (heart): 0.04 to 0.125 nM
COc1ccc(C(Oc2ccc(C#N)cc2)C(=O)Nc2nc3cc(OC)c(OC)cc3s2)cc1 (stereo not drawn)	< 50 nM	–
COc1cc2nc(NC(=O)C(Oc3ccc(C#N)cc3)c3ccc(C(F)(F)F)cc3)sc2cc1OC (stereo not drawn)	> 500 nM	–
COCCOc1ccc(OC(C(=O)Nc2nc3cc(OC)c(OC)cc3s2)c2ccc(C#N)cc2)cc1 (stereo not drawn)	50 to 100 nM	–
CCCCS(=O)(=O)c1ccc(C(Oc2ccc(C#N)cc2)C(=O)Nc2nc3cc(OC)c(OC)cc3s2)cc1 (stereo not drawn)	< 50 nM	–
COc1ccc(S(=O)(=O)c2cccc(C(Oc3ccc(C#N)cc3)C(=O)Nc3nc4cc(OC)c(OC)cc4s3)c2)cc1 (stereo not drawn)	> 500 nM	–
CCS(=O)(=O)c1ccc(C(Oc2ccc(C#N)cc2)C(=O)Nc2nc3ccc4c(c3s2)OCO4)cc1 (stereo not drawn)	> 500 nM	–
CCS(=O)(=O)c1cccc(C(Oc2ccc(OC)cc2)C(=O)Nc2nc3cc(OC)c(OC)cc3s2)c1 (stereo not drawn)	> 500 nM	–
COc1cc2nc(NC(=O)C(Oc3ccccc3)c3ccc(C#N)cc3)sc2cc1OC (stereo not drawn)	> 500 nM	–
CCS(=O)(=O)c1ccc(C(Oc2ccc3ccccc3c2)C(=O)Nc2nc3cc(OC)c(OC)cc3s2)cc1 (stereo not drawn)	> 500 nM	–

Second part, led by results:

EC50 [1]	Compound	other results
> 500 nM	CCS(=O)(=O)c1ccc(CC(=O)Nc2nc3c(OC)ccc(OC)c3s2)cc1	–
100 to 200 nM	CCS(=O)(=O)c1ccc(C(Oc2ccc(Cl)cc2)C(=O)Nc2nc3cc(OC)c(OC)cc3s2)cc1 (stereo not drawn)	–
< 50 nM	CCS(=O)(=O)c1ccc(C(Oc2ccc(C(=O)N(C)C)cc2)C(=O)Nc2nc3cc(OC)c(OC)cc3s2)cc1 (stereo not drawn)	–
> 500 nM	CCS(=O)(=O)c1ccc(C(Nc2cccc(OC)c2)C(=O)Nc2nc3cc(OC)c(OC)cc3s2)cc1 (stereo not drawn)	–
> 500 nM	COc1cc2nc(NC(=O)C(Oc3ccc(C#N)cc3)c3ccc(C(=O)NCCN4CCCCC4)cc3)oc2cc1OC (stereo not drawn)	–
> 500 nM	CCS(=O)(=O)c1ccc(C(Oc2ccc(C#N)cc2)C(=O)Nc2nc3ccccc3o2)cc1 (stereo not drawn)	–
200 to 500 nM	COc1cc2nc(NC(=O)C(Oc3ccc(C#N)cc3)c3ccc(S(=O)(=O)c4ccc(Cl)cc4)cc3)sc2cc1OC (stereo not drawn)	–
< 50 nM	COc1cc2nc(NC(=O)C(Oc3ccc(C(=O)NCCN4CCCCC4)cc3)c3ccc(C#N)cc3)sc2cc1OC (stereo not drawn)	–
> 500 nM	CCS(=O)(=O)c1ccc(C(C)C(=O)Nc2nc3cc(OC)c(OC)cc3s2)cc1 (stereo not drawn)	–
< 50 nM	CCS(=O)(=O)c1ccc(C(Oc2ccc(C#N)cc2)C(=O)Nc2nc3cc(OC)c(OC)cc3s2)cc1 (stereo not drawn)	–
> 500 nM	COc1cc2nc(NC(=O)Cc3ccc(S(=O)(=O)CC4CC4)cc3)sc2cc1OC	–
200 to 500 nM	CCS(=O)(=O)c1ccc(C(Oc2ccc(OC(F)(F)F)cc2)C(=O)Nc2nc3cc(OC)c(OC)cc3s2)cc1 (stereo not drawn)	–
50 to 100 nM	CCS(=O)(=O)c1ccc(C(Oc2ccc(C#N)cc2)C(=O)Nc2nc3ccc(C)c(OC)c3s2)cc1 (stereo not drawn)	–
< 50 nM	CCS(=O)(=O)c1ccc(C(Oc2ccc(C#N)cc2)C(=O)Nc2nc3cc(OC)c(OC)cc3o2)cc1 (stereo not drawn)	–
50 to 100 nM	COc1cc2nc(NC(=O)C(Oc3ccc(OCCN4CCCCC4)cc3)c3ccc(C#N)cc3)sc2cc1OC (stereo not drawn)	–
200 to 500 nM	CCS(=O)(=O)c1ccc(C(Oc2ccc(Br)cc2)C(=O)Nc2nc3cc(OC)c(OC)cc3s2)cc1 (stereo not drawn)	–
